Assay results published in patent US7741359B2, “Hydrogen sulfide derivatives of non-steroidal anti-inflammatory drugs” (Antibe Therapeutics Inc., priority 2006, dated 2010).
Entries after “also recorded” stand apart in the source; their conditions may differ. One block for each compound: values may come before it.

Key:
[1] = Gastric damage (gastric damage score) in rats after oral dosing; conditions: rats fasted 18 h; oral; doses equimolar to diclofenac 20 mg/kg; 3 h after administration; FIG. 1
[2] = Hematocrit before and after repeated administration; type: in vivo, rat; conditions: 50 μmol/kg at time 0, 12 and 24 hours; start versus 24 h after final dose; FIG. 6
Text: Another group of rats received vehicle (1% carboxymethylcellulose).

[3] = tested on: gastric prostaglandin E2 (PGE2) synthesis (COX-1 and/or COX-2); test: Gastric prostaglandin E2 (PGE2) synthesis in excised rat gastric tissue; type: in vivo; conditions: oral; doses equimolar to diclofenac 20 mg/kg; tissue taken 3 h after administration; FIG. 2
Procedure: Briefly, the tissue samples were minced with scissors for 30 min, then placed in 1 mL of sodium phosphate buffer (pH 7.4) and placed in a shaking water bath (37° C.) for 20 min.

[4] = Incidence of gastric damage at the end of the leukocyte adherence experiment; conditions: intragastric 30 μmol/kg; for Percent Incidence of Gastric Damage: end of experiment
Procedure: Briefly, post-capillary mesenteric venules in anesthetized rats are examined under a light microscope. […] All test compounds were prepared in a vehicle of 1% carboxymethylcellulose. Changes in leukocyte adherence within the venule were recorded with a video camera attached to the microscope, and quantification of the numbers of adherent leukocytes was performed in a blind manner through evaluation of the videotaped images. Each group consisted of 5 male, Wistar rats weighing 150-175 g. A leukocyte was considered “adherent” if it remained stationary for 30 seconds or more (results below are expressed as the mean ± SEM). At the end of the experiment the stomach was opened and examined for the presence of gastric damage, under a dissecting microscope.

COX-1 [5] = target: T1, COX-1 (Rattus norvegicus, UniProt Q63921); test: Whole blood thromboxane B2 synthesis of treated rats (inhibition of COX-1); type: in vivo
T1 construct: whole blood thromboxane synthesis, which occurs via COX-1; from tissue; host or cells: rat whole blood (ex vivo clotting after oral dosing)
T1 sequence (Q63921 27-602): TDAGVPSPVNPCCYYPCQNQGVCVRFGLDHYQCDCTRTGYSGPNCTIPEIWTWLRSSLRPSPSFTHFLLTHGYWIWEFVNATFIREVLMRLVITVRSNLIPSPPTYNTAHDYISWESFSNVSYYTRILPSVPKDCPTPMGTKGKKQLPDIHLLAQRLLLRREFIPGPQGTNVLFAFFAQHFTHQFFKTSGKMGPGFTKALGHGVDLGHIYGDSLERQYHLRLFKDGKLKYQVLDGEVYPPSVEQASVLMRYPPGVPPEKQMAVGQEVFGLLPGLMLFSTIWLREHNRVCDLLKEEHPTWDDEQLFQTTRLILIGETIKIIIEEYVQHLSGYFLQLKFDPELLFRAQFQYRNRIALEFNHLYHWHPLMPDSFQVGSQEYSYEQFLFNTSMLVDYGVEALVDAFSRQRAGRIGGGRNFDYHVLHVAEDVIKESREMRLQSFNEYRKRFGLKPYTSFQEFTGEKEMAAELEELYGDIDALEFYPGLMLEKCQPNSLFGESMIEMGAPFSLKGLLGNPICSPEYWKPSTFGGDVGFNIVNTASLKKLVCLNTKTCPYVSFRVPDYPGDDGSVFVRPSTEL
Procedure: Inhibition of COX-1 was also measured using the same rats. […] The samples were then centrifuged for 3 min at 9,000 g and the supernatant was frozen at −80° C. for subsequent measurement of thromboxane B2 concentrations using a specific ELISA.
Inhibition of COX-1 was also measured using the same rats, using the same method as described for FIG. 4. […]

[6] = Carrageenan hindpaw edema model; type: in vivo, rat; conditions: 30 min prior to carrageenan
Procedure: Male, Wistar rats weighing 175-200 g were given the test compounds orally 30 min prior to subplantar injection of 100 ul of 1% lambda carrageenan. Paw volume measured using an Ugo Basile hydroplethysmometer prior to carrageenan injection and at 1-h intervals thereafter for 5 h.

[7] = Small intestinal injury after repeated administration; conditions: 50 μmol/kg at time 0, 12 and 24 hours; assessed 24 h after final dose; FIG. 5
COX-2 = target: T2, COX-2 (Rattus norvegicus, UniProt P35355); test: Rat airpouch assay, exudate PGE2 after zymosan (inhibition of COX-2 in vivo)
T2 construct: from tissue; host or cells: rat subcutaneous airpouch (in vivo, zymosan-induced inflammation)
T2 sequence (P35355 18-604): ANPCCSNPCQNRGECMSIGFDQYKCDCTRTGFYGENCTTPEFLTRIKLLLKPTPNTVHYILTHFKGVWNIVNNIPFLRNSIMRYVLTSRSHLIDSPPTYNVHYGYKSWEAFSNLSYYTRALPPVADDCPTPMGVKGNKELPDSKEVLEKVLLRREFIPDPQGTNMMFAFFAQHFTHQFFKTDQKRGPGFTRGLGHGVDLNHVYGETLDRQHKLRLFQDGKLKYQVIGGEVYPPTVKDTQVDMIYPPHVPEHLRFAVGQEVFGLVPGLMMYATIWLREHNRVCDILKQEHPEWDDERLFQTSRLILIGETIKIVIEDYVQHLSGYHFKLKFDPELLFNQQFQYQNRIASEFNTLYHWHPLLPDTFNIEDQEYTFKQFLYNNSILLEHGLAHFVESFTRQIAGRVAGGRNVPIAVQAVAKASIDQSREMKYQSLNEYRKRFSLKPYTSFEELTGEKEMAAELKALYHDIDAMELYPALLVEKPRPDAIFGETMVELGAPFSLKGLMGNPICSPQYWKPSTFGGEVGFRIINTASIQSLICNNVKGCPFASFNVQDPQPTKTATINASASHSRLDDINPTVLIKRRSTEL
Procedure: Briefly, a subcutaneous “pouch” is created by repeated injections of air over several days. Once established, inflammation in the pouch can be induced by injection of 1 mL of 1% zymosan. […] Another group of 5 rats was treated with the vehicle, but received an injection of 0.9% sterile saline into the pouch rather than zymosan. […]
Each group consisted of 5 rats.

[8] = tested on: leukocyte adherence to the vascular endothelium; test: Leukocyte adherence to the vascular endothelium, intravital microscopy of mesenteric venules; conditions: intragastric 30 μmol/kg; for Number of Adherent Leukocytes: mean ± SEM
Procedure: Briefly, post-capillary mesenteric venules in anesthetized rats are examined under a light microscope. […] All test compounds were prepared in a vehicle of 1% carboxymethylcellulose. Changes in leukocyte adherence within the venule were recorded with a video camera attached to the microscope, and quantification of the numbers of adherent leukocytes was performed in a blind manner through evaluation of the videotaped images. Each group consisted of 5 male, Wistar rats weighing 150-175 g. A leukocyte was considered “adherent” if it remained stationary for 30 seconds or more (results below are expressed as the mean ± SEM).

[9] = Systolic blood pressure in hypertensive (L-NAME) rats; conditions: 30 μmol/kg intraperitoneal bolus; recorded for 60 minutes; FIG. 14
[10] = Healing of acetic acid-induced gastric ulcers; type: in vivo, rat
Procedure: Gastric ulcers were induced via serosal application of acetic acid, as described by Elliott et al., A nitric oxide-releasing nonsteroidal anti-inflammatory drug accelerates gastric ulcer healing in rats. Gastroenterology 1995; 109: 524-530. […] After 4 days of such treatment, the rats were euthanized and the stomach was excised and photographed. The area (in mm^2) of the ulcer was determined planimetrically by an individual unaware of the treatments given to the rats. In a subgroup of 5 rats euthanized 3 days after induction of gastric ulcers (i.e., prior to initiation of drug treatment), the mean surface area of the ulcers was 24±2 mm^2.

COX-1 [11] = target: T3, COX-1 (Homo sapiens, UniProt P23219); test: Human whole blood thromboxane B2 synthesis in vitro; type: cell-based; conditions: FIG. 12; for inhibition of COX-1 activity (thromboxane B2 synthesis by human blood): 0.1, 0.3, 1 or 3 μM, 45 min 37° C.
T3 construct: from tissue; host or cells: human whole blood from healthy volunteers
Procedure: Aliquots (0.5 mL) of blood from healthy human volunteers were added to glass tubes containing 10 uL of methanol alone, or one of the test drugs prepared such that the final concentration would be 0.1, 0.3, 1 or 3 μM. The tubes were placed in water bath (37° C.) with gentle shaking for 45 min, after which they were centrifuged (1,000×g) for 10 minutes. The concentration of thromboxane B2 in each sample was then determined using a specific ELISA, as in the studies shown in FIG. 4.

T3 sequence (P23219 24-599): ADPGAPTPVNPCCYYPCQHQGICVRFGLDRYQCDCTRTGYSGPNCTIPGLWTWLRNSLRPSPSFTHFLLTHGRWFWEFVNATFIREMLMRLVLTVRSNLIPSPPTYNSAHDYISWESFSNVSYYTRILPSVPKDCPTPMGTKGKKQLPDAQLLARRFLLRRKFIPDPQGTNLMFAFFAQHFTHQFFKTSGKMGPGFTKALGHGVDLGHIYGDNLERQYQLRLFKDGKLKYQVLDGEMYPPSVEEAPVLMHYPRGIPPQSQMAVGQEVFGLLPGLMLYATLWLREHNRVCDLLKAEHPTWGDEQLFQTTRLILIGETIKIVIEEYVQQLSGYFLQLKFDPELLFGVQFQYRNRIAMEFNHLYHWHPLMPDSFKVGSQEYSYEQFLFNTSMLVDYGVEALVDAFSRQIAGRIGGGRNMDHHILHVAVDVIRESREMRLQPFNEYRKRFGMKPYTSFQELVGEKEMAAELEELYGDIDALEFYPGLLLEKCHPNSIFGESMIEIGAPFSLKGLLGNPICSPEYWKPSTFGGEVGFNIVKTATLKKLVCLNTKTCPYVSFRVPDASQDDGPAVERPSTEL

hematocrit [2]: no significant effect on hematocrit | inhibition at 4.8 mg/kg (COX-1 [5]; rat, po): > 80% | Number of Adherent Leukocytes [8]: 3.0 ± 0.5 per 100 μm vessel length
Compound: O=C(Cc1ccccc1Nc1c(Cl)cccc1Cl)Oc1ccc(-c2cc(=S)ss2)cc1 [Compound II, [2-(2,6-dichloro-phenylamino)-phenyl]-acetic acid 4-(5-thioxo-5H-[1,2]dithiol-3-yl)-phenyl ester]
gastric damage score [1]: no gastric damage was seen; also recorded: elicited significantly less gastric damage than diclofenac | gastric PGE2 synthesis [3]: significantly reduced the amount of gastric PGE2 synthesis; also recorded: near-complete | percent incidence of gastric damage compared to the parent NSAID alone [4]: significantly reduced the percent incidence of gastric damage when compared to diclofenac alone | Percent Incidence of Gastric Damage [4]: 0% | paw edema (paw volume increase) ([6]; oral, dose equimolar to diclofenac at 3 mg/kg, compared with diclofenac, FIGS. 9, 10, 3 mg/kg): reduced paw edema to a greater extent; also recorded: comparable to the effect of diclofenac at a dose of 10 mg/kg | extent of small intestinal damage, less than in rats treated with diclofenac [7]: > 90% | concentrations of PGE2 within the pouch (COX-2) (COX-2; oral 30 min before injection, diclofenac 3 mg/kg, Compound II 4.8 mg/kg, Compound XVII 4.1 mg/kg, 1% zymosan, FIG. 7): markedly reduced the concentrations of PGE2 within the pouch | number of adherent leukocytes compared to the parent NSAID alone [8]: significantly reduced the number of adherent leukocytes per 100 μm vessel length | change in systolic blood pressure [9]: did not increase systolic blood pressure as compared to the vehicle-treated group; also recorded: significantly lower than that induced by diclofenac and naproxen, respectively

Compound: NC(=S)c1ccc(O)cc1 [TBZ, 4-hydroxythiobenzamide, reference compound]
gastric PGE2 synthesis [3]: did not reduce gastric PGE2 synthesis when compared to vehicle | COX-1 activity (whole blood thromboxane synthesis) (COX-1 [5]; hydrogen sulfide releasing moieties alone, dose not given, FIG. 8): neither of the hydrogen sulfide releasing moieties (ADT-OH and TBZ) significantly affected COX-1 activity | gastric ulcer healing (ulcer area) ([10]; hydrogen sulfide releasing moiety alone, dose not given): did not significantly affect the healing of gastric ulcers as compared to the vehicle-treated group | COX-2 activity (exudate PGE2) (COX-2; hydrogen sulfide releasing moieties alone, dose not given): neither of the hydrogen sulfide releasing moieties (ADT-OH and TBZ) significantly affected COX-2 activity

hematocrit [2]: profound reduction of hematocrit
Compound: O=C(O)Cc1ccccc1Nc1c(Cl)cccc1Cl [Diclofenac, diclofenac, reference compound]
paw edema (paw volume increase) ([6]; oral 1, 3 or 10 mg/kg, FIG. 9): dose-dependently reduced paw edema | gastric ulcer healing (ulcer area) ([10]; 30 μmol/kg twice-daily orally for 4 days, starting 3 days after ulcer induction, FIG. 13): exhibited similar degrees of healing | small intestinal damage (erosions/ulcers) [7]: extensive erosions and ulcers in the small intestine | change in systolic blood pressure [9]: caused a substantial increase in systolic blood pressure

Compound: COc1ccc2c(c1)c(CC(=O)Oc1ccc(-c3cc(=S)ss3)cc1)c(C)n2C(=O)c1ccc(Cl)cc1 [Compound IV, [1-(4-Chloro-benzoyl)-5-methoxy-2-methyl-1-H-indol-3-yl]-acetic acid 4-(5-thioxo-5-H-[1,2]dithiol-3-yl)-phenyl ester]
Percent Incidence of Gastric Damage [4]: 20% | Number of Adherent Leukocytes [8]: 3.6 ± 0.7 per 100 μm vessel length | inhibition of COX-1 activity (thromboxane B2 synthesis by human blood) (COX-1 [11]): concentration-dependent inhibition of COX-1 activity as compared to the vehicle-treated group

Compound: COc1ccc2c(c1)c(CC(=O)Oc1ccc(C(N)=S)cc1)c(C)n2C(=O)c1ccc(Cl)cc1 [Compound XIX, [1-(4-Chloro-benzoyl)-5-methoxy-2-methyl-1-H-indol-3-yl]-acetic acid 4-thiocarbamoyl-phenyl ester]
Percent Incidence of Gastric Damage [4]: 0% | inhibition of COX-1 activity (thromboxane B2 synthesis by human blood) (COX-1 [11]): concentration-dependent inhibition of COX-1 activity as compared to the vehicle-treated group; also recorded: significantly better at inhibiting thromboxane B2 synthesis than the ADT-OH equivalent, Compound IV | inhibition of COX-1 activity compared with indomethacin (COX-1 [11]; concentrations of 1 and 3 μM): significantly greater (*p<0.05) inhibition of COX-1 activity than that produced by indomethacin
